From patent US20070128217A1 (priority 2003, published 2007)

Key:
[1] = test system: antibodies in sera from SARS patients (sera 1a, 1b, 2, 6, 37, 62, London, SARS-yellow, SARS-green); assay type: binding, human
[2] = test system: control sera (pooled serum of ten healthy LUMC hospital workers; commercial negative donor pooled serum from the Dutch bloodbank); assay type: binding, human
[3] = test system: rabbit serum obtained by immunizing a rabbit with the SARS-CoV strain Frankfurt 1; assay type: binding; design: Binding of a rabbit serum to linear peptides / Binding of a rabbit serum to looped peptides / Rabbit serum linear peptides / Rabbit serum looped peptides / Binding of a rabbit serum to linear peptides of protein N of SARS-CoV Urbani (Rabbit serum linear peptides) / Binding of a rabbit serum to looped/cyclic peptides of protein N of SARS-CoV Urbani (Rabbit serum looped peptides): unit not given here

NSVLLFLAFVVFLLV
0.8: Binding of serum 1a to linear peptides of protein E of SARS-CoV Urbani [1] | Binding of Control serum LUMC to looped peptides [2]
0.4: Binding of serum 6 to looped/cyclic peptides of protein E of SARS-CoV Urbani [1] | Binding of serum SARS-green to looped/cyclic peptides of protein E of SARS-CoV Urbani [1]
0.9: Binding of serum 6 to linear peptides of protein E of SARS-CoV Urbani [1]
0.6: Binding of serum 1a to looped/cyclic peptides of protein E of SARS-CoV Urbani [1] | Binding of serum 1b to linear peptides of protein E of SARS-CoV Urbani [1] | Binding of serum 2 to linear peptides of protein E of SARS-CoV Urbani [1] | Binding of serum 2 to looped/cyclic peptides of protein E of SARS-CoV Urbani [1] | Binding of serum London to linear peptides of protein E of SARS-CoV Urbani [1] | Binding of Control Serum Blood-Bank to Looped peptides [2] | Binding of a rabbit serum to linear peptides [3] | Binding of a rabbit serum to looped peptides [3]
0.2: Binding of serum SARS-yellow to linear peptides of protein E of SARS-CoV Urbani [1]
0.7: Binding of serum 37 to linear peptides of protein E of SARS-CoV Urbani [1] | Binding of serum 37 to looped/cyclic peptides of protein E of SARS-CoV Urbani [1] | Binding of serum 62 to linear peptides of protein E of SARS-CoV Urbani [1] | Binding of serum 62 to looped/cyclic peptides of protein E of SARS-CoV Urbani [1] | Binding of serum SARS-yellow to looped/cyclic peptides of protein E of SARS-CoV Urbani [1] | Binding of Control serum Blood-bank to linear peptides [2] | Binding of Control serum LUMC to linear peptides [2]
0.5: Binding of serum 1b to looped/cyclic peptides of protein E of SARS-CoV Urbani [1]
0.3: Binding of serum London to looped/cyclic peptides of protein E of SARS-CoV Urbani [1] | Binding of serum SARS-green to linear peptides of protein E of SARS-CoV Urbani [1]

RLCAYCCNIVNVSLV
0.2: Binding of serum SARS-yellow to linear peptides of protein E of SARS-CoV Urbani [1] | Binding of a rabbit serum to looped peptides [3]
0.8: Binding of serum 62 to looped/cyclic peptides of protein E of SARS-CoV Urbani [1] | Binding of serum SARS-green to looped/cyclic peptides of protein E of SARS-CoV Urbani [1] | Binding of Control serum Blood-bank to linear peptides [2] | Binding of Control serum LUMC to looped peptides [2]
0.7: Binding of serum 1a to looped/cyclic peptides of protein E of SARS-CoV Urbani [1] | Binding of serum 1b to looped/cyclic peptides of protein E of SARS-CoV Urbani [1] | Binding of serum 2 to looped/cyclic peptides of protein E of SARS-CoV Urbani [1] | Binding of serum 6 to looped/cyclic peptides of protein E of SARS-CoV Urbani [1] | Binding of Control Serum Blood-Bank to Looped peptides [2]
0.5: Binding of serum 1b to linear peptides of protein E of SARS-CoV Urbani [1] | Binding of serum 37 to linear peptides of protein E of SARS-CoV Urbani [1] | Binding of serum London to linear peptides of protein E of SARS-CoV Urbani [1] | Binding of serum London to looped/cyclic peptides of protein E of SARS-CoV Urbani [1] | Binding of serum SARS-green to linear peptides of protein E of SARS-CoV Urbani [1]
0.6: Binding of serum 1a to linear peptides of protein E of SARS-CoV Urbani [1] | Binding of serum 2 to linear peptides of protein E of SARS-CoV Urbani [1] | Binding of serum 37 to looped/cyclic peptides of protein E of SARS-CoV Urbani [1] | Binding of serum SARS-yellow to looped/cyclic peptides of protein E of SARS-CoV Urbani [1] | Binding of Control serum LUMC to linear peptides [2]
0.4: Binding of serum 6 to linear peptides of protein E of SARS-CoV Urbani [1] | Binding of serum 62 to linear peptides of protein E of SARS-CoV Urbani [1] | Binding of a rabbit serum to linear peptides [3]

SVLLFLAFVVFLLVT
0.6: Binding of serum 1a to looped/cyclic peptides of protein E of SARS-CoV Urbani [1] | Binding of serum 37 to looped/cyclic peptides of protein E of SARS-CoV Urbani [1] | Binding of serum 62 to looped/cyclic peptides of protein E of SARS-CoV Urbani [1] | Binding of serum SARS-green to looped/cyclic peptides of protein E of SARS-CoV Urbani [1] | Binding of serum SARS-yellow to looped/cyclic peptides of protein E of SARS-CoV Urbani [1] | Binding of Control Serum Blood-Bank to Looped peptides [2] | Binding of a rabbit serum to linear peptides [3]
0.7: Binding of serum 1b to linear peptides of protein E of SARS-CoV Urbani [1] | Binding of serum 62 to linear peptides of protein E of SARS-CoV Urbani [1] | Binding of Control serum Blood-bank to linear peptides [2] | Binding of Control serum LUMC to looped peptides [2]
0.3: Binding of serum SARS-yellow to linear peptides of protein E of SARS-CoV Urbani [1]
0.9: Binding of serum 6 to linear peptides of protein E of SARS-CoV Urbani [1]
0.4: Binding of serum 6 to looped/cyclic peptides of protein E of SARS-CoV Urbani [1] | Binding of serum London to looped/cyclic peptides of protein E of SARS-CoV Urbani [1]
0.5: Binding of serum 1b to looped/cyclic peptides of protein E of SARS-CoV Urbani [1] | Binding of serum 2 to linear peptides of protein E of SARS-CoV Urbani [1] | Binding of serum 2 to looped/cyclic peptides of protein E of SARS-CoV Urbani [1] | Binding of serum London to linear peptides of protein E of SARS-CoV Urbani [1] | Binding of serum SARS-green to linear peptides of protein E of SARS-CoV Urbani [1] | Binding of Control serum LUMC to linear peptides [2]
0.8: Binding of serum 1a to linear peptides of protein E of SARS-CoV Urbani [1] | Binding of serum 37 to linear peptides of protein E of SARS-CoV Urbani [1]
0.2: Binding of a rabbit serum to looped peptides [3]

TALRLCAYCCNIVNV
0.6: Binding of serum 6 to looped/cyclic peptides of protein E of SARS-CoV Urbani [1] | Binding of serum SARS-green to linear peptides of protein E of SARS-CoV Urbani [1] | Binding of Control serum LUMC to linear peptides [2]
0.2: Binding of serum SARS-yellow to linear peptides of protein E of SARS-CoV Urbani [1] | Binding of a rabbit serum to linear peptides [3]
0.4: Binding of serum 1b to looped/cyclic peptides of protein E of SARS-CoV Urbani [1] | Binding of serum 6 to linear peptides of protein E of SARS-CoV Urbani [1] | Binding of a rabbit serum to looped peptides [3]
0.5: Binding of serum 1b to linear peptides of protein E of SARS-CoV Urbani [1] | Binding of serum 2 to linear peptides of protein E of SARS-CoV Urbani [1] | Binding of serum 37 to linear peptides of protein E of SARS-CoV Urbani [1] | Binding of serum 62 to linear peptides of protein E of SARS-CoV Urbani [1] | Binding of serum London to linear peptides of protein E of SARS-CoV Urbani [1] | Binding of serum London to looped/cyclic peptides of protein E of SARS-CoV Urbani [1] | Binding of Control serum Blood-bank to linear peptides [2]
0.8: Binding of serum 2 to looped/cyclic peptides of protein E of SARS-CoV Urbani [1]
0.9: Binding of serum 62 to looped/cyclic peptides of protein E of SARS-CoV Urbani [1] | Binding of serum SARS-yellow to looped/cyclic peptides of protein E of SARS-CoV Urbani [1]
0.7: Binding of serum 1a to linear peptides of protein E of SARS-CoV Urbani [1] | Binding of serum 1a to looped/cyclic peptides of protein E of SARS-CoV Urbani [1] | Binding of serum 37 to looped/cyclic peptides of protein E of SARS-CoV Urbani [1] | Binding of serum SARS-green to looped/cyclic peptides of protein E of SARS-CoV Urbani [1] | Binding of Control Serum Blood-Bank to Looped peptides [2] | Binding of Control serum LUMC to looped peptides [2]

TLIVNSVLLFLAFVV
0.1: Binding of a rabbit serum to linear peptides [3]
0.3: Binding of serum 62 to linear peptides of protein E of SARS-CoV Urbani [1] | Binding of serum SARS-yellow to linear peptides of protein E of SARS-CoV Urbani [1] | Binding of a rabbit serum to looped peptides [3]
0.6: Binding of serum 1a to looped/cyclic peptides of protein E of SARS-CoV Urbani [1] | Binding of serum 62 to looped/cyclic peptides of protein E of SARS-CoV Urbani [1] | Binding of serum London to linear peptides of protein E of SARS-CoV Urbani [1] | Binding of serum SARS-green to linear peptides of protein E of SARS-CoV Urbani [1] | Binding of serum SARS-yellow to looped/cyclic peptides of protein E of SARS-CoV Urbani [1] | Binding of Control serum Blood-bank to linear peptides [2]
0.5: Binding of serum 1b to linear peptides of protein E of SARS-CoV Urbani [1] | Binding of serum 1b to looped/cyclic peptides of protein E of SARS-CoV Urbani [1] | Binding of serum 6 to linear peptides of protein E of SARS-CoV Urbani [1] | Binding of serum 37 to linear peptides of protein E of SARS-CoV Urbani [1] | Binding of serum SARS-green to looped/cyclic peptides of protein E of SARS-CoV Urbani [1]
0.7: Binding of serum 1a to linear peptides of protein E of SARS-CoV Urbani [1] | Binding of serum 2 to looped/cyclic peptides of protein E of SARS-CoV Urbani [1] | Binding of serum 37 to looped/cyclic peptides of protein E of SARS-CoV Urbani [1]
0.8: Binding of Control Serum Blood-Bank to Looped peptides [2] | Binding of Control serum LUMC to looped peptides [2]
0.4: Binding of serum 2 to linear peptides of protein E of SARS-CoV Urbani [1] | Binding of serum 6 to looped/cyclic peptides of protein E of SARS-CoV Urbani [1] | Binding of serum London to looped/cyclic peptides of protein E of SARS-CoV Urbani [1] | Binding of Control serum LUMC to linear peptides [2]
